From US9783543B2, “Aminoimidazopyridazines” (BAYER PHARMA AKTIENGESELLSCHAFT, priority 2012, dated 2017)
Like-named read-outs stand apart in the source and are kept apart here.

Assays:
human full-lengt MKNK1 = human full-lengt MKNK1 (Homo sapiens (Human), UniProt Q9BUB5, T344D); test: MKNK1 kinase assay (TR-FRET, 10 μM ATP); type: biochemical
From the text: MKNK1-inhibitory activity of compounds of the present invention was quantified employing the MKNK1 TR-FRET assay as described in the following paragraphs.
(§1) A recombinant fusion protein of Glutathione-S-Transferase (GST, N-terminally) and human full-lengt MKNK1 (amino acids 1-424 and T344D of accession number BAA 19885.1), expressed in insect cells using baculovirus expression system and purified via glutathione sepharose affinity chromatography, was purchased from Carna Biosciences (product no 02-145) and used as enzyme. As substrate for the kinase reaction the biotinylated peptide biotin-Ahx-[…] (C-terminus in amide form) was used which can be purchased e.g. form the company Biosyntan (Berlin-Buch, Germany).
(§2) For the assay 50 nL of a 100 fold concentrated solution of the test compound in DMSO was pipetted into a black low volume 384 well microtiter plate (Greiner Bio-One, Frickenhausen, Germany), 2 μL of a solution of MKNK1 in aqueous assay buffer [50 mM HEPES pH 7.5, 5 mM magnesium chloride, 1.0 mM dithiothreitol, 0.005% (v/v) Nonidet-P40 (Sigma)] was added and the mixture was incubated for 15 min at 22° C. to allow pre-binding of the test compounds to the enzyme before the start of the kinase reaction. Then the kinase reaction was started by the addition of 3 μL of a solution of adenosine-tri-phosphate (ATP, 16.7 μM=>final conc. in the 5 μL assay volume is 10 μM) and substrate (0.1 μM=>final conc. in the 5 μL assay volume is 0.06 μM) in assay buffer and the resulting mixture was incubated for a reaction time of 45 min at 22° C. The concentration of MKNK1 was adjusted depending of the activity of the enzyme lot and was chosen appropriate to have the assay in the linear range, typical concentrations were in the range of 0.05 μg/ml. The reaction was stopped by the addition of 5 μL of a solution of TR-FRET detection reagents (5 nM streptavidine-XL665 [Cisbio Bioassays, Codolet, France] and 1 nM anti-ribosomal protein S6 (pSer236)-antibody from Invitrogen [#44921G] and 1 nM LANCE EU-W1024 labeled ProteinG [Perkin-Elmer, product no. AD0071]) in an aqueous EDTA-solution (100 mM EDTA, 0.1% (w/v) bovine serum albumin in 50 mM HEPES pH 7.5).
(§3) The resulting mixture was incubated for 1 h at 22° C. to allow the formation of complex between the phosphorylated biotinylated peptide and the detection reagents. Subsequently the amount of phosphorylated substrate was evaluated by measurement of the resonance energy transfer from the Eu-chelate to the streptavidine-XL. Therefore, the fluorescence emissions at 620 nm and 665 nm after excitation at 350 nm were measured in a TR-FRET reader, e.g. a Rubystar (BMG Labtechnologies, Offenburg, Germany) or a Viewlux (Perkin-Elmer). The ratio of the emissions at 665 nm and at 622 nm was taken as the measure for the amount of phosphorylated substrate.

human full-length MKNK1 = human full-length MKNK1 (Homo sapiens (Human), UniProt Q9BUB5, T344D); test: MKNK1 kinase high ATP assay (TR-FRET, 2 mM ATP); type: biochemical
Experimental: MKNK1 Kinase High ATP Assay
MKNK1-inhibitory activity at high ATP of compounds of the present invention after their preincubation with MKNK1 was quantified employing the TR-FRET-based MKNK1 high ATP assay as described in the following paragraphs.
as §1, with “human full-length” for “human full-lengt”, “was used,” for “was used”, “e.g. from” for “e.g. form”
as §2, with “3.3 mM=>final” for “16.7 μM=>final”, “2 mM)” for “10 μM)”, “30” for “45”, “0.003 μg/mL.” for “0.05 μg/ml.”
as §3

[1] = read-out: IC50 MKNK1 (10 μM ATP), 15 min preincubation, GST-MKNK1 T344D
[2] = read-out: IC50 MKNK1 (2 mM ATP), 15 min preincubation, GST-MKNK1 T344D
[3] = 15 min preincubation, GST-MKNK1 T344D

Sequence of human full-length MKNK1 (Q9BUB5 other isoform, or with tags, fused parts or gaps T344D): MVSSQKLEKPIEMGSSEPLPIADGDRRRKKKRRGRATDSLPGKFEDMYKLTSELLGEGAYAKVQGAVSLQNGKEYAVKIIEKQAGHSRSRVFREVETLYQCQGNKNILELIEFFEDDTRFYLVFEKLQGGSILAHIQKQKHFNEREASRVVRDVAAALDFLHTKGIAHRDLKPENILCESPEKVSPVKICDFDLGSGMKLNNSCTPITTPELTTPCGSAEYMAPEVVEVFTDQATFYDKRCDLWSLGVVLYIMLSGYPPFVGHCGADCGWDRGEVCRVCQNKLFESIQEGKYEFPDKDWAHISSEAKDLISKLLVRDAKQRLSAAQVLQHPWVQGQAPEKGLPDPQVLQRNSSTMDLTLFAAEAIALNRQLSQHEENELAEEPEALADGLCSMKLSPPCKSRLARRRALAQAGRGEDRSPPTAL
Sequence of human full-lengt MKNK1 (Q9BUB5 other isoform, or with tags, fused parts or gaps T344D): as above

## OC[C@H]1C[C@H](Nc2ccc3ncc(-c4cc5ccccc5o4)n3n2)C1 [Example 1, (trans-3-{[3-(1-Benzofuran-2-yl)imidazo[1,2-b]pyridazin-6-yl]amino}cyclobutyl)methanol]
Human full-lengt MKNK1; [1]
  IC50: 8 nM
Human full-length MKNK1; [2]
  IC50: 11 nM

## O[C@H]1C[C@H](CNc2ccc3ncc(-c4cc5ccccc5o4)n3n2)C1 [Example 2, trans-3-({[3-(1-Benzofuran-2-yl)imidazo[1,2-b]pyridazin-6-yl]amino}methyl)-cyclobutanol]
Human full-lengt MKNK1; [3]
  IC50: 9 nM
Human full-length MKNK1; [3]
  IC50: 21 nM

## O[C@H]1CCC[C@H]1Nc1ccc2ncc(-c3cc4ccccc4o3)n2n1 [Example 3, (1S,2R)-2-{[3-(1-Benzofuran-2-yl)imidazo[1,2-b]pyridazin-6-yl]amino}cyclopentanol]
Human full-lengt MKNK1; [1]
  IC50: 10 nM
Human full-length MKNK1; [2]
  IC50: 30 nM

## O[C@@H]1CCC[C@H]1Nc1ccc2ncc(-c3cc4ccccc4o3)n2n1 [Example 4, (1R,2R)-2-{[3-(1-Benzofuran-2-yl)imidazo[1,2-b]pyridazin-6-yl]amino}cyclopentanol]
Human full-lengt MKNK1; [1]
  IC50: 14 nM
Human full-length MKNK1; [2]
  IC50: 41 nM

## O[C@@H]1CCCC[C@@H]1Nc1ccc2ncc(-c3cc4ccccc4o3)n2n1 [Example 5, (1R,2S)-2-{[3-(1-Benzofuran-2-yl)imidazo[1,2-b]pyridazin-6-yl]amino}cyclohexanol]
Human full-lengt MKNK1; [1]
  IC50: 42 nM
Human full-length MKNK1; [2]
  IC50: 49 nM

## O[C@H]1CCC[C@@H]1Nc1ccc2ncc(-c3cc4ccccc4o3)n2n1 [Example 6, (1S,2S)-2-{[3-(1-Benzofuran-2-yl)imidazo[1,2-b]pyridazin-6-yl]amino}cyclopentanol]
Human full-lengt MKNK1; [1]
  IC50: 22 nM
Human full-length MKNK1; [2]
  IC50: 52 nM

## O[C@@H]1CCC[C@@H]1Nc1ccc2ncc(-c3cc4ccccc4o3)n2n1 [Example 7, (1R,2S)-2-{[3-(1-Benzofuran-2-yl)imidazo[1,2-b]pyridazin-6-yl]amino}cyclopentanol]
Human full-lengt MKNK1; [1]
  IC50: 24 nM
Human full-length MKNK1; [2]
  IC50: 66 nM

## O[C@H]1CCCC[C@@H]1Nc1ccc2ncc(-c3cc4ccccc4o3)n2n1 [Example 8, (1S,2S)-2-{[3-(1-Benzofuran-2-yl)imidazo[1,2-b]pyridazin-6-yl]amino}cyclohexanol]
Human full-lengt MKNK1; [1]
  IC50: 126 nM
Human full-length MKNK1; [2]
  IC50: 94 nM

## O[C@@H]1CCCC[C@H]1Nc1ccc2ncc(-c3cc4ccccc4o3)n2n1 [Example 9, (1R,2R)-2-{[3-(1-Benzofuran-2-yl)imidazo[1,2-b]pyridazin-6-yl]amino}cyclohexanol]
Human full-lengt MKNK1; [1]
  IC50: 318 nM
Human full-length MKNK1; [2]
  IC50: 210 nM

## O[C@H]1CC[C@H](Nc2ccc3ncc(-c4cc5ccccc5o4)n3n2)CC1 [Example 10, trans-4-{[3-(1-Benzofuran-2-yl)imidazo[1,2-b]pyridazin-6-yl]amino}cyclohexanol]
Human full-lengt MKNK1; [1]
  IC50: 12 nM
Human full-length MKNK1; [2]
  IC50: 31 nM

## O[C@H]1C[C@H](Nc2ccc3ncc(-c4cc5cnccc5o4)n3n2)C1 [Example 11, trans-3-{[3-(Furo[3,2-c]pyridin-2-yl)imidazo[1,2-b]pyridazin-6-yl]amino}cyclobutanol]
Human full-lengt MKNK1; [1]
  IC50: 14 nM
Human full-length MKNK1; [2]
  IC50: 52 nM
